Where two headings read alike, the source gives them in different places.
Assays:
Assay in all cases: Kinase profile (33P ATP filter binding)
Type in all cases: biochemical
[1] = molecular target: ABL (Homo sapiens, UniProt P00519); details: read-out: Remaining protein kinase activity
[2] = molecular target: CAMK1 (Homo sapiens, UniProt Q14012); details: read-out: Remaining protein kinase activity
[3] = molecular target: CAMKKb (Homo sapiens, UniProt Q96RR4); details: read-out: Remaining protein kinase activity
[4] = molecular target: HIPK3 (Homo sapiens, UniProt Q9H422); details: read-out: Remaining protein kinase activity
[5] = molecular target: JNK1 (Homo sapiens, UniProt P45983)
[6] = molecular target: JNK2 (Homo sapiens, UniProt P45984)
[7] = molecular target: Lck (Homo sapiens, UniProt P06239); details: read-out: Remaining protein kinase activity
[8] = molecular target: MLK3 (Homo sapiens, UniProt Q16584)
[9] = molecular target: PAK2 (Homo sapiens, UniProt Q13177); details: read-out: Remaining protein kinase activity
[10] = molecular target: PIM1 (Homo sapiens, UniProt P11309); details: read-out: Remaining protein kinase activity
[11] = molecular target: PIM2 (Homo sapiens, UniProt Q9P1W9); details: read-out: Remaining protein kinase activity
[12] = molecular target: PIM3 (Homo sapiens, UniProt Q86V86); details: read-out: Remaining protein kinase activity
[13] = molecular target: T1, PINK (Tribolium castaneum, UniProt D6WMX4); details: read-out: Remaining protein kinase activity
T1 sequence (D6WMX4 1-570): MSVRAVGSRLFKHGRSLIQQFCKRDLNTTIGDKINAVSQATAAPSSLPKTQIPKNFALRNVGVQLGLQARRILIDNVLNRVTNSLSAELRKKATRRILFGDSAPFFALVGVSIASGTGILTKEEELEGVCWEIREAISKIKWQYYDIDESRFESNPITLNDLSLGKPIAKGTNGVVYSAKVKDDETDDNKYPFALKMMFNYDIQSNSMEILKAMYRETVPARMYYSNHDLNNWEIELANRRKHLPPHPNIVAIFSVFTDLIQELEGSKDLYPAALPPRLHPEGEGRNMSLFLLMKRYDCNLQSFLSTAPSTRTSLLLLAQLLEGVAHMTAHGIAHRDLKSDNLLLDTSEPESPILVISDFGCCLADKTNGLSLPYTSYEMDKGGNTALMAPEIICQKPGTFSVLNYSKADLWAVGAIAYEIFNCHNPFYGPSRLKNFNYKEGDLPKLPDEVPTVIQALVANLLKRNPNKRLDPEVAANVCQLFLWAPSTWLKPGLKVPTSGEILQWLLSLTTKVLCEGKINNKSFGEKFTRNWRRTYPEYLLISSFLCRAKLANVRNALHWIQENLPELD

[14] = molecular target: PKA (Homo sapiens, UniProt P17612); details: read-out: Remaining protein kinase activity
[15] = molecular target: RSK2 (Homo sapiens, UniProt P51812); details: read-out: Remaining protein kinase activity
[16] = molecular target: TTBK1 (Homo sapiens, UniProt Q5TCY1); details: read-out: Remaining protein kinase activity
[17] = molecular target: YES1 (Homo sapiens, UniProt P07947); details: read-out: Remaining protein kinase activity
YES1, sequence (P07947 whole entry): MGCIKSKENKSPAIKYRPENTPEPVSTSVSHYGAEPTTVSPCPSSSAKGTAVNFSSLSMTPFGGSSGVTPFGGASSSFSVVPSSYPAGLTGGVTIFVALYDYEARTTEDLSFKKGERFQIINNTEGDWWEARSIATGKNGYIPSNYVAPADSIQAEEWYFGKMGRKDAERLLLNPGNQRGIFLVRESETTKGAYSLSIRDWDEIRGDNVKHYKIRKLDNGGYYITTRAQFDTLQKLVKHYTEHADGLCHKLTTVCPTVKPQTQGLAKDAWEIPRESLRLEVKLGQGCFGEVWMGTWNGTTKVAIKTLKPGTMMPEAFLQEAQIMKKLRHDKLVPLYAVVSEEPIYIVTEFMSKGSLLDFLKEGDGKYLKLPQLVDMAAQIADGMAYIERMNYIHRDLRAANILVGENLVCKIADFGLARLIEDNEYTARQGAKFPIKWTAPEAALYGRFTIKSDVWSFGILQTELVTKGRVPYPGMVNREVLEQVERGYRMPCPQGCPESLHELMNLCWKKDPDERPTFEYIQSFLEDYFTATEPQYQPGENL

CAMKKb, sequence (Q96RR4 whole entry): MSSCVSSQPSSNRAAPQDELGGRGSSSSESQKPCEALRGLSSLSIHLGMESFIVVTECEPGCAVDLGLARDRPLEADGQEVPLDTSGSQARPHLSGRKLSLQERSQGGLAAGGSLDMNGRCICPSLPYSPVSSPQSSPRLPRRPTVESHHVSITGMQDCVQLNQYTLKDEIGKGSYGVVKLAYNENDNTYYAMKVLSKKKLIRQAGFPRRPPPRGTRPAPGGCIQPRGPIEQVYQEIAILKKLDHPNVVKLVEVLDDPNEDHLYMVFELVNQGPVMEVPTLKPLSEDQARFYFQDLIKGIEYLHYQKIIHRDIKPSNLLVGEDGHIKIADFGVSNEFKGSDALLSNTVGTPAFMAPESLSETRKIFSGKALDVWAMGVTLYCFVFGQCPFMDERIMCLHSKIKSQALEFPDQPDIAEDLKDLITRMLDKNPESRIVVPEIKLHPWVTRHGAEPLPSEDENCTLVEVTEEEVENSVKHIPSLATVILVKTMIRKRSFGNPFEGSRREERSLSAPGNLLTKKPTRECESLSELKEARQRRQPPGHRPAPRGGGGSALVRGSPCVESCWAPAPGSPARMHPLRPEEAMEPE
MLK3, sequence (Q16584 whole entry): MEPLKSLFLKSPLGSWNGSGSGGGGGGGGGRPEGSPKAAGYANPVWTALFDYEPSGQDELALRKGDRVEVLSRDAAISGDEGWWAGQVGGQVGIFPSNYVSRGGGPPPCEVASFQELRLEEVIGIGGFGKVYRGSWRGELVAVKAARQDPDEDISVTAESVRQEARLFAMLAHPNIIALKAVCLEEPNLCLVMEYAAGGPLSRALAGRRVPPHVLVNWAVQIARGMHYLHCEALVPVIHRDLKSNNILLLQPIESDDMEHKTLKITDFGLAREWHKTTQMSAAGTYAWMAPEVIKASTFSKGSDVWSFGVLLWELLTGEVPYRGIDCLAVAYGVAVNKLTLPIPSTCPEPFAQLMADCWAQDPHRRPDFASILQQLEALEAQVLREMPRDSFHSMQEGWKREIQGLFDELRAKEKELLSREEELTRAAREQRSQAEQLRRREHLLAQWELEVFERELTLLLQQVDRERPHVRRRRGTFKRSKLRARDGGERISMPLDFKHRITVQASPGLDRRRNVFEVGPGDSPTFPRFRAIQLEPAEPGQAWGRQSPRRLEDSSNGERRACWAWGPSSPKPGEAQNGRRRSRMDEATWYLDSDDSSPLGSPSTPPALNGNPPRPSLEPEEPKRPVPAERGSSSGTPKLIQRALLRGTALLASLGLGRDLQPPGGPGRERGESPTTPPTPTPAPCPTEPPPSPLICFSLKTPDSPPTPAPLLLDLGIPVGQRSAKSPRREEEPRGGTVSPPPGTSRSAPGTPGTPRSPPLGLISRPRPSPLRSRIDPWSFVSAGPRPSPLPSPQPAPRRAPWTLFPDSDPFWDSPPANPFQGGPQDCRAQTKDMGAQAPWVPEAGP
HIPK3, sequence (Q9H422 whole entry): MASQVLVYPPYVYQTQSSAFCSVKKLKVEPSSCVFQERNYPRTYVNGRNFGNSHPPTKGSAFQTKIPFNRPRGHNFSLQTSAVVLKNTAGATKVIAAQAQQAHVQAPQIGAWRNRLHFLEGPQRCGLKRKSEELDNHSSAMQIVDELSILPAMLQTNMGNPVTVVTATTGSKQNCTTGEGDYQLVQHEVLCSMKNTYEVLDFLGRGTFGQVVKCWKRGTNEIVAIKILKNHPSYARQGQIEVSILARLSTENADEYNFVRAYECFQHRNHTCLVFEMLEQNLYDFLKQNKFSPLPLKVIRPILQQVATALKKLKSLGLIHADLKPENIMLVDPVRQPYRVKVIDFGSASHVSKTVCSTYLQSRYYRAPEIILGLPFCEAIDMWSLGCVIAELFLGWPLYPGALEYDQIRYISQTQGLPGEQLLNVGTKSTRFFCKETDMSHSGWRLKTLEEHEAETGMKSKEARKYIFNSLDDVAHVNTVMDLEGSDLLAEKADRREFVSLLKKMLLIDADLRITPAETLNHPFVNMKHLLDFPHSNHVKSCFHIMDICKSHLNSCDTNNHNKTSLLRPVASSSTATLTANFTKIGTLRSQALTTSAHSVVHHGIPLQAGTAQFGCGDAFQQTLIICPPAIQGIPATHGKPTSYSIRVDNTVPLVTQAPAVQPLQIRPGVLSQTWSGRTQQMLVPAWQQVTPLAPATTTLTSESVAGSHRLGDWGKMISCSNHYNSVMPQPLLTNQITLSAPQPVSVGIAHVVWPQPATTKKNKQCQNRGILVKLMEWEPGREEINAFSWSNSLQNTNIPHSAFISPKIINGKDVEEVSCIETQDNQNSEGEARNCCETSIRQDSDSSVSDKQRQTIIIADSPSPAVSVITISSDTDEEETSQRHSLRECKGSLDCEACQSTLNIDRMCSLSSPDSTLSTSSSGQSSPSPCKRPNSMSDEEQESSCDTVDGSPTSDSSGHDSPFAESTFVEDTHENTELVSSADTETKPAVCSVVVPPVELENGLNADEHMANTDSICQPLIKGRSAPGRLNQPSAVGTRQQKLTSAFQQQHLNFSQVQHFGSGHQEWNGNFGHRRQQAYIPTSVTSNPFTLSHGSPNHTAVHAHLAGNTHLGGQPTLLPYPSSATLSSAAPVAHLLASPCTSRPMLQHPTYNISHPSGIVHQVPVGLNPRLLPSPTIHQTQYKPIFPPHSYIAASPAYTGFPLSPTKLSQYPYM
ABL, sequence (P00519 whole entry): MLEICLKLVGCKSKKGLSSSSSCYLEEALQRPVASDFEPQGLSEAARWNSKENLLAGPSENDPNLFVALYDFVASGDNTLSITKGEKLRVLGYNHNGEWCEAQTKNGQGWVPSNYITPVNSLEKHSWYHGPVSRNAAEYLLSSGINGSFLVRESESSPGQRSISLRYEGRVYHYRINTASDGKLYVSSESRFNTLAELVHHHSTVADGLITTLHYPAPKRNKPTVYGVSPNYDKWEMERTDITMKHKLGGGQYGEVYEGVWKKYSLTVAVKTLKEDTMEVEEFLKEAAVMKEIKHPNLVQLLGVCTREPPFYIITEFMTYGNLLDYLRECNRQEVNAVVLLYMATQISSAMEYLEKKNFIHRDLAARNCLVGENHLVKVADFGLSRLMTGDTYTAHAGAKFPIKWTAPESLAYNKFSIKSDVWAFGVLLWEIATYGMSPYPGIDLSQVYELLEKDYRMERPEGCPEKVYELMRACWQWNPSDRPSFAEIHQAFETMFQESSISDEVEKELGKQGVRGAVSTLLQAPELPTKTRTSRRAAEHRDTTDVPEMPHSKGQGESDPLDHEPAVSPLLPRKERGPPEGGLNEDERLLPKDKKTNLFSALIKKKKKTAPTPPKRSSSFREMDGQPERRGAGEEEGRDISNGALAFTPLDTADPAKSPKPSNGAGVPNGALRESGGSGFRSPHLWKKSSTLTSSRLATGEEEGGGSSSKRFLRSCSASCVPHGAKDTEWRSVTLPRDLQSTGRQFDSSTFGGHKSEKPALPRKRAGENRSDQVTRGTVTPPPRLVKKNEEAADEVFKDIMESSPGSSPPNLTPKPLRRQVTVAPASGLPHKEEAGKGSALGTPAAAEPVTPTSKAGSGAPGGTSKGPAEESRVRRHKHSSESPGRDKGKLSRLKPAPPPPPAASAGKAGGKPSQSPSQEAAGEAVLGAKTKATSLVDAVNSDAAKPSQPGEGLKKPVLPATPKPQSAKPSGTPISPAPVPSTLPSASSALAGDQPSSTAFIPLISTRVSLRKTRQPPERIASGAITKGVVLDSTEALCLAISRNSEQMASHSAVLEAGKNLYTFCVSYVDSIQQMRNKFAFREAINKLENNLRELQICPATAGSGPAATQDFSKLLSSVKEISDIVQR
JNK2, sequence (P45984 whole entry, species assumed): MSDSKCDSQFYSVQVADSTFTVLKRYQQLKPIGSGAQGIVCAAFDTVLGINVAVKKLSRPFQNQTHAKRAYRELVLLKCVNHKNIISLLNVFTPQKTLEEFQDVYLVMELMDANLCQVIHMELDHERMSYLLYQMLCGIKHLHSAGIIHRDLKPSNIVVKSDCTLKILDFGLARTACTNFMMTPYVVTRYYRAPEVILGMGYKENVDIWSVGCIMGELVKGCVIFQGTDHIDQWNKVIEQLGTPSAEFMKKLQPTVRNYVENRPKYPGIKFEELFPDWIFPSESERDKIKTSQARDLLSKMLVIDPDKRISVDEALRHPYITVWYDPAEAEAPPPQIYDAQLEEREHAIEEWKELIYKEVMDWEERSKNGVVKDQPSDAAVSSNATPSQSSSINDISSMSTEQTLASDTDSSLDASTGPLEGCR

SMILES: COc1ccc2sc(-c3cncc(N)c3)nc2c1 [compound 1, 5-(5-Methoxybenzo[d]thiazol-2-yl)pyridin-3-amine]
- remaining activity at 1 µM ([1]; ABL, 1 μM): 108%
- remaining activity at 100 µM ([1]; ABL, 100 μM): 46%
- remaining activity at 1 µM ([2]; CAMK1, 1 μM): 99%
- remaining activity at 100 µM ([2]; CAMK1, 100 μM): 52%
- remaining activity at 1 µM ([3]; CAMKKb, 1 μM): 107%
- remaining activity at 100 µM ([3]; CAMKKb, 100 μM): 37%
- remaining activity at 1 µM ([4]; HIPK3, 1 μM): 120%
- remaining activity at 100 µM ([4]; HIPK3, 100 μM): 28%
- Remaining protein kinase activity ([5]; 1 μM): 112%
- Remaining protein kinase activity ([5]; 100 μM): 94%
- Remaining protein kinase activity ([6]; 1 μM): 123%
- Remaining protein kinase activity ([6]; 100 μM): 104%
- remaining activity at 1 µM ([7]; Lck, 1 μM): 106%
- remaining activity at 100 µM ([7]; Lck, 100 μM): 52%
- Remaining protein kinase activity ([8]; 1 μM): 101%
- Remaining protein kinase activity ([8]; 100 μM): 29%
- remaining activity at 1 µM ([9]; PAK2, 1 μM): 110%
- remaining activity at 100 µM ([9]; PAK2, 100 μM): 103%
- remaining activity at 1 µM ([10]; PIM1, 1 μM): 87%
- remaining activity at 100 µM ([10]; PIM1, 100 μM): 24%
- remaining activity at 1 µM ([11]; PIM2, 1 μM): 110%
- remaining activity at 100 µM ([11]; PIM2, 100 μM): 36%
- remaining activity at 1 µM ([12]; PIM3, 1 μM): 90%
- remaining activity at 100 µM ([12]; PIM3, 100 μM): 24%
- remaining activity at 1 µM [13]: 121%
- remaining activity at 100 µM [13]: 114%
- remaining activity at 1 µM ([14]; PKA, 1 μM): 98%
- remaining activity at 100 µM ([14]; PKA, 100 μM): 74%
- remaining activity at 1 µM ([15]; RSK2, 1 μM): 115%
- remaining activity at 100 µM ([15]; RSK2, 100 μM): 56%
- remaining activity at 1 µM ([16]; TTBK1, 1 μM): 109%
- remaining activity at 100 µM ([16]; TTBK1): 90%
- remaining activity at 1 µM ([17]; YES1, 1 μM): 122%
- remaining activity at 100 µM ([17]; YES1, 100 μM): 58%

SMILES: COc1ccc2sc(-c3cncc(NC(C)=O)c3)nc2c1 [PST-001, N-(5-(5-Methoxybenzo[d]thiazol-2-yl)pyridin-3-yl)acetamide]
- remaining activity at 1 µM [1]: 97%
- remaining activity at 100 µM [1]: 99%
- remaining activity at 100 µM [2]: 100%
- remaining activity at 1 µM [3]: 104%
- remaining activity at 100 µM [3]: 54%
- remaining activity at 1 µM [4]: 123%
- remaining activity at 100 µM [4]: 100%
- Remaining protein kinase activity ([5]; 1 μM): 113%
- Remaining protein kinase activity ([5]; 100 μM): 130%
- Remaining protein kinase activity ([6]; 1 μM): 126%
- Remaining protein kinase activity ([6]; 100 μM): 129%
- remaining activity at 1 µM [7]: 93%
- remaining activity at 100 µM [7]: 100%
- Remaining protein kinase activity ([8]; 1 μM): 109%
- Remaining protein kinase activity ([8]; 100 μM): 60%
- remaining activity at 1 µM [9]: 114%
- remaining activity at 100 µM [9]: 122%
- remaining activity at 1 µM [10]: 98%
- remaining activity at 100 µM [10]: 32%
- remaining activity at 1 µM [11]: 120%
- remaining activity at 100 µM [11]: 102%
- remaining activity at 1 µM [12]: 93%
- remaining activity at 100 µM [12]: 76%
- remaining activity at 1 µM [13]: 119%
- remaining activity at 100 µM [13]: 118%
- remaining activity at 1 µM [14]: 88%
- remaining activity at 100 µM [14]: 88%
- remaining activity at 1 µM [15]: 113%
- remaining activity at 100 µM [15]: 100%
- remaining activity at 100 µM ([16]; TTBK1): 110%
- remaining activity at 1 µM [16]: 109%
- remaining activity at 1 µM [17]: 130%
- remaining activity at 100 µM [17]: 128%

From PMC8617627, “Novel DYRK1A Inhibitor Rescues Learning and Memory Deficits in a Mouse Model of Down Syndrome” (Pharmaceuticals, 2021)
